Data: patent publication US20250214979A1, “COMPOUNDS FOR TREATING PSYCHOSTIMULANT MISUSE” (University of Florida Research Foundation, Incorporated, priority 2022, published 2025)
Where two headings read alike, the source gives them in different places.

Assays:
sigma 1 (h) = target: T1, sigma 1 (h) (Homo sapiens, UniProt Q99720); assay: sigma 1 (h) agonist radioligand binding assay ([3H](+)pentazocine); conditions: Sigma 1 Receptor, 1.00E−06 M
T1 construct: endogenous; endogenous in cells; host or cells: Jurkat cells
Experimental: (§1) 12 compounds in binding assays (either sigma 1 or sigma 2 receptors) at 1.0×10^−6 M. Compound binding was calculated as a % inhibition of the binding of a ligand specific for each target.
(§2) The results are expressed as a percent of control specific binding: [(measured specific binding)/(control specific binding)]*100 and as a percent inhibition of control specific binding: 100−{[(measured specific binding)/(control specific binding)]*100}, obtained in the presence of the test compounds.
(§3) The IC50 values (concentration causing a half-maximal inhibition of control specific binding) and Hill coefficients (nH) were determined by non-linear regression analysis of the competition curves generated with mean replicate values using Hill equation curve fitting: Y={D+[(A−D)/(1+(C/C50)^nH)]} (where Y=specific binding, A=left asymptote of the curve, D=right asymptote of the curve, C=compound concentration, C50=IC50, and nH=slope factor). This analysis was performed using software developed at Cerep (Hill software) and validated by comparison with data generated by the commercial software SigmaPlot® 4.0 for Windows® (© 1997 by SPSS Inc.). The inhibition constants (Ki) were calculated using the Cheng Prusoff equation: Ki=(IC50)/(1+L/KD) (where L=concentration of ligand in the assay, and KD=affinity of the ligand for the receptor).

sigma 2 (h) = target: T2, sigma 2 (h) (Homo sapiens, UniProt Q5BJF2); assay: sigma 2 (h) agonist radioligand binding assay ([3H]DTG); conditions: Sigma 2 Receptor, 1.00E−06 M
T2 construct: endogenous; endogenous in cells; host or cells: Jurkat cells
Experimental: as §1, §2, §3

dopamine transporter (h) = target: T3, dopamine transporter (h) (Homo sapiens, UniProt Q01959); assay: dopamine transporter (h) antagonist radioligand binding assay ([3H]BTCP); conditions: 1.00E−06 M
T3 construct: expressed in transfected cells; host or cells: CHO cells
Experimental: [The source words this procedure for another target and reports this target under the same test.] as §1, §2, §3

[1] = 1st, read-out: % Inhibition of Control Specific Binding, 1st
[2] = 2nd, read-out: % Inhibition of Control Specific Binding, 2nd
[3] = read-out: % Inhibition of Control Specific Binding, 3rd

T1 sequence (Q99720 whole entry): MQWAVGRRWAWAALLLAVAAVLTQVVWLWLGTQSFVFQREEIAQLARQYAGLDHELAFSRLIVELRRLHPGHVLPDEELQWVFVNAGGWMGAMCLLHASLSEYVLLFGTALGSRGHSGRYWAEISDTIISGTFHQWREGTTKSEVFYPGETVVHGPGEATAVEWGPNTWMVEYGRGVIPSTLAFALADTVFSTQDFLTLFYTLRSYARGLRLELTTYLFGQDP
T2 sequence (Q5BJF2 whole entry): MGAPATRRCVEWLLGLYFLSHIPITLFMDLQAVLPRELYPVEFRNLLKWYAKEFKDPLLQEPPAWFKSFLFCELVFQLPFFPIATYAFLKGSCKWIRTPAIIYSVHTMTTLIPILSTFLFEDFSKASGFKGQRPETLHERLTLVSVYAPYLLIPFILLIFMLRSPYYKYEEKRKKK
T3 sequence (Q01959 whole entry): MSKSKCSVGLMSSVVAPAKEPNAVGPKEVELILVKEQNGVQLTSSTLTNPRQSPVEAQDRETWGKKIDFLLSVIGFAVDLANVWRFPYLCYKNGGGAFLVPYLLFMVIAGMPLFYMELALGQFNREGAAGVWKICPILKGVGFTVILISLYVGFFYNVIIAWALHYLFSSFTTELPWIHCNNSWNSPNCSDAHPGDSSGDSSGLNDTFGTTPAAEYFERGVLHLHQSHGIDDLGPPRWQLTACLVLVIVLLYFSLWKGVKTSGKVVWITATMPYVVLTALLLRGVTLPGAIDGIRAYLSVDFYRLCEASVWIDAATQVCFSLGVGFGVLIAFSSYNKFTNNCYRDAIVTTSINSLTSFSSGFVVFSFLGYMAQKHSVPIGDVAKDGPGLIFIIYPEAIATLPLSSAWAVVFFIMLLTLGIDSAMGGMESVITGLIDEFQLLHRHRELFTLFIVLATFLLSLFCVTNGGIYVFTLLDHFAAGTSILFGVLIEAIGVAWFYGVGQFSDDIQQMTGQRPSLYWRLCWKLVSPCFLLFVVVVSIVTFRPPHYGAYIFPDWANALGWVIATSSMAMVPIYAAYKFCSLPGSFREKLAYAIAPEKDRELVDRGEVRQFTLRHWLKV

Structure (SMILES)	inhibition at 1 µM (sigma 1 (h); [1])	inhibition at 1 µM (sigma 1 (h); [2])	inhibition at 1 µM (sigma 1 (h); [3])	inhibition at 1 µM (sigma 2 (h); [1])	inhibition at 1 µM (sigma 2 (h); [2])	inhibition at 1 µM (sigma 2 (h); [3])	inhibition at 1 µM (dopamine transporter (h); [1])	inhibition at 1 µM (dopamine transporter (h); [2])	inhibition at 1 µM (dopamine transporter (h); [3])
O=C1CSCc2ccccc2N1CCCCN1CCC2(CC1)OCc1ccccc12 [STG187]	93.6%	98.9%	96.3%	96.5%	108%	102%	12.9%	13.1%	13%
O=C1COCc2ccccc2N1CCCCN1CCC2(CC1)OCc1ccccc12 [STG135, 1-(4-(3H-spiro[isobenzofuran-1,4′-piperidin]-1′-yl)butyl)-1,5-dihydrobenzo[e][1,4]oxazepin-2(3H)-one]	97.9%	94.5%	96.2%	106%	84.4%	95.2%	6%	3.5%	4.8%
O=C1CCCc2ccccc2N1CCCCN1CCC2(CC1)OCc1ccccc12 [STG136, 1-(4-(3H-spiro[isobenzofuran-1,4′-piperidin]-1′-yl)butyl)-1,3,4,5-tetrahydro-2H-benzo[b]azepin-2-one]	98.8%	98.4%	98.6%	90.3%	100%	95.3%	7.9%	11.4%	9.7%
O=C1CCCc2ccccc2N1CCCCN1CCN(c2ccccc2Cl)CC1 [STG158]	95.7%	93.8%	94.7%	93.2%	100%	96.7%	-5.6%	-2.8%	-4.2%
O=C1CSCc2ccccc2N1CCCCN1CCN(c2cccc(Cl)c2)CC1 [STG191]	98.6%	98.5%	98.6%	86.2%	102%	94.4%	21.8%	27.6%	24.7%
O=C1CSCc2ccccc2N1CCCCN1CCN(c2ccccc2Cl)CC1 [STG192]	53.5%	53.2%	53.3%	56.6%	43.4%	50%	12.6%	4.3%	8.5%
Cn1c(=O)n(CCCCN2CCC3(CC2)OCc2ccccc23)c2ccccc21 [CM699, reference compound]	95.6%	94%	94.8%	88%	95.9%	92%	18.6%	23.2%	20.9%

Other lines, results leading:

inhibition at 1 µM (sigma 1 (h); [1])	inhibition at 1 µM (sigma 1 (h); [2])	inhibition at 1 µM (sigma 1 (h); [3])	inhibition at 1 µM (sigma 2 (h); [1])	inhibition at 1 µM (sigma 2 (h); [2])	inhibition at 1 µM (sigma 2 (h); [3])	inhibition at 1 µM (dopamine transporter (h); [1])	inhibition at 1 µM (dopamine transporter (h); [2])	inhibition at 1 µM (dopamine transporter (h); [3])	Structure (SMILES)
93.8%	95.4%	94.6%	95%	99.8%	97.4%	28.3%	25.9%	27.1%	O=C1COCc2ccccc2N1CCCCN1CCN(c2cccc(Cl)c2)CC1 [SMB108, 1-(4-(4-(3-Chlorophenyl)piperazin-1-yl)butyl)-1,5-dihydrobenzo[e][1,4]oxazepin-2(3H)-one]
96.7%	97.6%	97.1%	104%	98.7%	101%	24.6%	24.4%	24.5%	O=C1CCCc2ccccc2N1CCCCN1CCN(c2cccc(Cl)c2)CC1 [SMB107, 1-(4-(4-(3-Chlorophenyl)piperazin-1-yl)butyl)-1,3,4,5-tetrahydro-2H-benzo[b]azepin-2-one]
98.8%	99.2%	99%	82.9%	85.9%	84.4%	26.5%	23.2%	24.8%	O=C1CCCc2ccccc2N1CCCCN1CCN(c2ccc(Cl)cc2)CC1 [STG188]
101%	101%	101%	96.4%	95.5%	95.9%	9.2%	14.8%	12%	O=C1CSCc2ccccc2N1CCCCN1CCN(c2ccc(Cl)cc2)CC1 [STG190]
92.8%	93.6%	93.2%	82.2%	78.2%	80.2%	8.6%	5.1%	6.8%	O=C1COCc2ccccc2N1CCCCN1CCN(c2ccc(Cl)cc2)CC1 [STG189]
